# Literature values, collected in US7109169B2, “Method for treating heart failure by inhibiting the sarcolemmal sodium/calcium exchange” (priority 2002, dated 2006).
structure (smiles),measurement,setting,value
N=C(N)SCCc1ccc(OCc2ccc([N+](=O)[O-])cc2)cc1 [KB-R7943],mode of the Na/Ca exchanger inhibited,Na/Ca exchanger,predominantly the Ca-entry mode
same,specificity of action,Na/Ca exchanger; inhibits a variety of ion channels in the cardiac membrane,completely non-specific
same,effect on cardiac contractility,cardiac contractility,no effect
